Laboratory results reported in US5750362A, “Methods for identifying substances with a potential herbicidal or growth-regulating action by means of plant transporter proteins, the use of the transporter proteins, and substances with a herbicidal and growth-regulating action” (BASF Aktiengesellschaft, priority 1993, dated 1998).

Assays:
sucrose transporters = settings: Bush, 1989, Plant Physiol. 89: 1318-1323; result in words; cited from earlier work
[1] = target: T1, sucrose transporter P62 (StSUT1) (Solanum tuberosum, UniProt Q43653); test: [14C]-sucrose uptake by yeast strain SUSY-7-P62 (StSUT1) expressing the potato sucrose transporter; type: cell-based; settings: [14C]-sucrose uptake, pH 3.8, read-out: Activity relative to the control [%]
T1 construct: whole-cell [14C]-sucrose uptake; no tag or borders given
T1 sequence (Q43653 1-516): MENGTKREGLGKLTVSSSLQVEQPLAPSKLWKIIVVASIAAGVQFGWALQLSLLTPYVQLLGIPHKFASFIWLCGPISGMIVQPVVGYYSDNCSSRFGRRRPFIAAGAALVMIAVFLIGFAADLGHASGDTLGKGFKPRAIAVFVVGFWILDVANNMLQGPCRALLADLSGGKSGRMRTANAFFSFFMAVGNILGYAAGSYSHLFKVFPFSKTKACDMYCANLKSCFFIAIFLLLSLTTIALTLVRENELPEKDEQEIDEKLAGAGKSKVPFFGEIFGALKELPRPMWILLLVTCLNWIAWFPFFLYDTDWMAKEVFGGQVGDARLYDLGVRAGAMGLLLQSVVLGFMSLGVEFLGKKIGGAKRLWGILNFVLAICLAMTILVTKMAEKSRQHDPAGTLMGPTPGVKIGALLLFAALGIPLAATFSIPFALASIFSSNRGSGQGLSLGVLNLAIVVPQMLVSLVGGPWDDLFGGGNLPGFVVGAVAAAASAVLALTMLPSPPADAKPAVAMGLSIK
Text: Yeast cells of the strain SUSY7 (Riesmeier et al., 1992, EMBO J. 11: 4705-4713) are used to identify substances which have an inhibitory effect on sucrose transporters from potato. Cells of this strain are transformed with a cDNA sequence which codes for the sucrose transporter P62 (StSUT1) from potato (WO 94/00574, Riesmeier et al., 1993, Plant Cell 5:1591-1598) and which ensures expression of a functional transporter in the cells. The resulting yeast strain was called SUSY-7-P62 (StSUT1). The yeast cells are cultured in minimal medium (SD +2% (w/v) sucrose, pH 3.8) at 28° C. and harvested in the logarithmic phase (OD600 =0.6). The cells are spun down at 4000 rpm for 10 minutes and washed twice with SD medium. A cell concentration of c=50 g/l in SD medium is adjusted according to the wet weight of the cells, and 200 Al aliquot fractions are taken. Before the actual reaction, the cells are incubated in 10 mM glucose for 5 min and adjusted to pH 3.8 with MES buffer. The reaction is started by adding 200 Al of a 0.2 mmol/l [14C]-sucrose solution (3 mCi/mmol) in SD medium (pH 3.8). After 20, 60, 120, 180 and 240 seconds, 70 μl portions of the suspension are removed and pipetted into 4 ml of ice-cold water in order to stop the reaction. The cells are filtered off on glass fiber filters and washed twice with ice-cold water. The radioactivity on the filters is subsequently determined in a liquid scintillation counter. The substances to be tested are added 30 seconds before addition of the sucrose. The uptake of radiolabeled sucrose without addition of a potential inhibitor is determined as one control. Cells of the strain SUSY7 which are not transformed with cDNA sequences coding for a sucrose transporter from potato are employed as further control.
The various tested substances, their concentration and the activity of the transporter, shown as percentage activity of the control in which no potential inhibitors were added, are indicated.

[2] = target: T2, ammonium transporter AMT1 (Arabidopsis thaliana, UniProt P54144); test: cell-based; settings: pH 7; [14C]-methylamine uptake; tested substance 10 μM; read-out: Activity relative to the control [%]
T2 construct: expressed in transfected cells; host or cells: Saccharomyces cerevisiae 26972c (mutations in MEP1 and MEP2)
T2 sequence (P54144 1-501): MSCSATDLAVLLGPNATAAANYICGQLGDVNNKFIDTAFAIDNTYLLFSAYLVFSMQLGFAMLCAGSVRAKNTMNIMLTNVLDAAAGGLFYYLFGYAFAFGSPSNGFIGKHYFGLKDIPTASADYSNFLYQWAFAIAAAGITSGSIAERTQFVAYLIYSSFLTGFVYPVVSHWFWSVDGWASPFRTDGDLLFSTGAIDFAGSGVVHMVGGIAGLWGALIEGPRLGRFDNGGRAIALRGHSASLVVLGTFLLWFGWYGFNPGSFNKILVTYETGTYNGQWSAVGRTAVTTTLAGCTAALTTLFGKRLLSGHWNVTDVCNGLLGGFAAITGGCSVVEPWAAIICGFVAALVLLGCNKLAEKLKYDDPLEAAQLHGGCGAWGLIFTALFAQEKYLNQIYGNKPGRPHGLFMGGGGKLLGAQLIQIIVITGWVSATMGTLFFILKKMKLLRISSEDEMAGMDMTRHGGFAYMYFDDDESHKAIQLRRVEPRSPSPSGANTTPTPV

Row | remaining activity at 500 µM ([1]; tested substance 0.5 mM) [%] | SMILES | Inhibition of sucrose transport (sucrose transporters) | remaining activity at 10 µM [2] [%] | remaining activity at 10 µM ([1]; tested substance 10 μM) [%]
1 | 6 | CCOC(=O)OC(=O)OCC [DEPC, diethyl pyrocarbonate] | highly effective transport inhibitors | – | –
2 | – | N#CC(C#N)=NNc1cccc(Cl)c1 [CCCP] | – | 40 | 9
